Results reported in article PMC6429262, “Design and Synthesis of Novel Anti-Proliferative Emodin Derivatives and Studies on their Cell Cycle Arrest, Apoptosis Pathway and Migration” (Molecules, 2019).

Assays:
[1] = system: MCF-7 cells; test: CellTiter-Glo Luminescent Cell Viability Assay, MCF-7; type: cell-based, human; details: for IC50: MCF-7 cells, 48 h, mean of three independent experiments
[2] = system: L02 cells; test: Cytotoxic activity against human normal liver cells (L02); type: cell-based
[3] = system: Bax; test: Western blot, Bax; type: cell-based, human; details: 48 h
Protocol: (§1) Total cell lysates from cultured HepG2 cells treated with different concentrations of compound 7a for 48 h were obtained by lysing the cells in ice-cold RIPA buffer (1 PBS, 1% NP-40, 0.5% sodium deoxycholate and 0.1% SDS) containing […] PMSF, 5 mg/mL aprotinin, 5 mg/mL leupeptin, 5 mg/mL pepstatin and […] NaF. After centrifugation at 12,000 rpm for 10 min, the protein in the supernatant was quantified by the Bradford method (BIO-RAD, Hercules, CA, USA) using a Multimode Varioscan instrument (Thermo Fischer Scientific, Waltham, MA, USA). Twenty micrograms of protein per lane was applied in 12% SDS polyacrylamide gel. After electrophoresis, the protein was transferred to a polyvinylidine difluoride membrane (Amersham Biosciences, Marlborough, MA, USA). The membrane was blocked at room temperature for 2 h in TBST containing 5% blocking powder (Santa Cruz, Dallas, TX, USA). The membrane was washed with TBST for 5 min, and the primary antibody was added and incubated at 4 °C overnight (O/N). Bax (5023, CST, Danvers, MA, USA), Bcl-2 (15071, CST), cytochrome c (4280, CST), procaspase-9 (AB138412, Abcam, Cambridge, MA, USA), procaspase-3 (AB32150, Abcam), caspase-3 (66470-2-lg, Proteintech Group, Rosemont, IL, USA) and GAPDH (AB8245, Abcam) antibodies were employed. After three TBST washes, the membrane was incubated with the corresponding horseradish peroxidase-labeled secondary antibody (1:5000) (Santa Cruz) at room temperature for 2 h. Membranes were washed with TBST for 15 min five times and the protein blots were visualized with chemiluminescence reagent (Thermo Fischer Scientific Ltd.). The X-ray films were developed with a developer and fixed with fixer solution. The grey levels were analyzed using ImageQuant LAS 4000 system (GE, Marlborough, MA, USA).

[4] = system: Bcl-2; test: Western blot, Bcl-2; type: cell-based, human; details: 48 h
Protocol: as §1

[5] = system: cytochrome c; test: Western blot, cytochrome c; type: cell-based, human; details: 48 h
Protocol: as §1

[6] = system: procaspase-3; test: Western blot, procaspase-3; type: cell-based, human; details: 48 h
Protocol: as §1

[7] = system: caspase-3; test: Western blot, cleaved caspase-3; type: cell-based, human; details: 48 h
Protocol: as §1

[8] = system: HepG2 cells; test: Cell cycle analysis, PI staining flow cytometry; type: cell-based, human; design: Dip G1 (G1 phase cells) / Dip S (S phase cell population): dose or concentration left out as unconfirmed; details: for Cell cycle distribution, G0/G1 / Cell cycle distribution, G2/M / Cell cycle distribution, S: mean ± SD of three experiments
Protocol: To further examine how compound 7a suppressed the growth of HepG2 cells, the effect of compound 7a on cell cycle distribution with different concentrations was investigated by flow cytometric analysis following staining the DNA with propidium iodide (PI).
The HepG2 cells were treated with indicated concentrations of compound 7a. After incubation for 48 h, cells were washed twice with ice-cold PBS, fixed and permeabilized with ice cold 70% ethanol at −20 °C overnight. The cells were treated with 100 μg/mL RNase A at 37 °C for 30min, then washed with ice-cold PBS and finally stained with 1mg/mL PI in the dark at 4 °C for 30 min. The cellular DNA content for the cell cycle distribution analysis was performed with the system software (CellQuest; BD Biosciences), plotting at least 30,000 events per sample. The percentage of cells in the G1, S and G2 phases of the cell cycle were determined using the ModFit LT version 5.0 software package (Verity Software, Topsham, ME, USA).

[9] = HepG2, 48 h, representative plot

- IC50 ([1]; Homo sapiens, MCF7, 48 h): 5.92 ± 0.36 µM
- IC50 [1]: 6.47 ± 0.18 µM
Structure (SMILES): Cc1cc(O)c2c(c1)C(=O)c1cc(OCCCOC(=O)[C@@H](C)N)cc(O)c1C2=O.O=C(O)C(F)(F)F [Compound 7a, (R)-1-(3-(4,5-Dihydroxy-7-methyl-9,10-dioxo-9,10-dihydroanthracen-2-yloxy)propoxy)-1-oxopropan-2-aminium 2,2,2-trifluoroacetate]
- Selectivity Index MCF-7 ([1]; IC50 on normal cells (L02)/IC50 on cancer cells (MCF-7)): 2.36
- IC50 ([2]; Homo sapiens, L02, human normal liver L02 cells): 14 ± 0.27 µM
- IC50 ([2]; human normal liver L02 cells): 18.5 ± 0.19 µM
- Relative expression level, Bax ([3]; HepG2, 2.5 μM): 1.180 ± 0.046
- Relative expression level, Bax ([3]; HepG2, 5 μM): 1.347 ± 0.081
- Relative expression level, Bax ([3]; HepG2, 10 μM): 1.593 ± 0.112
- Relative expression level, Bcl-2 ([4]; HepG2, 2.5 μM): 0.685 ± 0.025
- Relative expression level, Bcl-2 ([4]; HepG2, 5 μM): 0.312 ± 0.012
- Relative expression level, Bcl-2 ([4]; HepG2, 10 μM): 0.268 ± 0.022
- Relative expression level, cytochrome c ([5]; HepG2, 2.5 μM): 1.407 ± 0.015
- Relative expression level, cytochrome c ([5]; HepG2, 5 μM): 1.663 ± 0.110
- Relative expression level, cytochrome c ([5]; HepG2, 10 μM): 2.220 ± 0.387
- Relative expression level, Full length procaspase-3 ([6]; HepG2, 2.5 μM): 0.78 ± 0.012
- Relative expression level, procaspase-3 ([6]; HepG2, 2.5 μM): 0.510 ± 0.132
- Relative expression level, Full length procaspase-3 ([6]; HepG2, 5 μM): 0.220 ± 0.019
- Relative expression level, procaspase-3 ([6]; HepG2, 5 μM): 0.317 ± 0.031
- Relative expression level, Full length procaspase-3 ([6]; HepG2, 10 μM): 0.152 ± 0.009
- Relative expression level, procaspase-3 ([6]; HepG2, 10 μM): 0.170 ± 0.053
- Relative expression level, Cleaved Caspase-3 ([7]; HepG2, 2.5 μM): 0.056 ± 0.011
- Relative expression level, Cleaved Caspase-3 ([7]; HepG2, 5 μM): 0.143 ± 0.013
- Relative expression level, Cleaved Caspase-3 ([7]; HepG2, 10 μM): 0.185 ± 0.026
- Cell cycle distribution, G0/G1 ([8]; HepG2, 0.25 μM): 44.18 ± 1.79%
- Cell cycle distribution, G2/M ([8]; HepG2, 0.25 μM): 17.55 ± 0.90%
- Cell cycle distribution, S ([8]; HepG2, 0.25 μM): 38.25 ± 1.65%
- Cell cycle distribution, G0/G1 ([8]; HepG2, 0.5 μM): 56.49 ± 1.40%
- Cell cycle distribution, G2/M ([8]; HepG2, 0.5 μM): 24.81 ± 1.79%
- Cell cycle distribution, S ([8]; HepG2, 0.5 μM): 19.21 ± 1.33%
- Cell cycle distribution, G0/G1 ([8]; HepG2, 1 μM): 63.96 ± 2.42%
- Cell cycle distribution, G2/M ([8]; HepG2, 1 μM): 22.22 ±1.16%
- Cell cycle distribution, S ([8]; HepG2, 1 μM): 14.52 ± 1.43%
- Dip G1 (G1 phase cells) [8, 9]: 63.37%
- Dip S (S phase cell population) [8, 9]: 14.60%
